From ChEMBL document CHEMBL3045576, “Azadirachtin avoidance by larvae and adult females of the tomato leafminer Tuta absoluta” (2013)
Active and inactive are the calls of the source. The rule behind the calls is not given here.

Key:
Tuta absoluta [1] = test: Walking avoidance activity against second-instar larval stage of Tuta absoluta Araguari infested compound-pretreated filter paper assessed as effect on walking time at LC90 concentration measured for 10 min; assay type: functional, organism-based
Tuta absoluta [2] = test: Walking avoidance activity against second-instar larval stage of Tuta absoluta Vicosa infested compound-pretreated filter paper assessed as effect on walking time at LC90 concentration measured for 10 min; assay type: functional, organism-based
Tuta absoluta [3] = test: Egg-laying avoidance activity against non-sexed adult stage of Tuta absoluta Araguari in compound-pretreated tomato leaves assessed as decrease in number of eggs laid at LC10 to LC90 concentration measured for 2 days by no-choice test; assay type: functional, organism-based
Tuta absoluta [4] = test: Resistance ratio of LC10 for Tuta absoluta Vicosa larvae to LC10 for Tuta absoluta Araguari larvae; assay type: functional
Tuta absoluta [5] = test: Egg-laying avoidance activity against non-sexed adult stage of Tuta absoluta Vicosa in compound-pretreated tomato leaves assessed as decrease in number of eggs laid at LC10 to LC90 concentration measured for 2 days by no-choice test; assay type: functional, organism-based
Tuta absoluta [6] = test: Effect on leaf mining activity of Tuta absoluta Araguari second-instar larvae in compound-pretreated tomato leaves assessed as length of time required to mine the leaf at LC10 to LC90 concentration; assay type: functional
Tuta absoluta [7] = test: Walking avoidance activity against second-instar larval stage of Tuta absoluta Araguari in compound-pretreated tomato leaves assessed as decrease in walking time at LC10 concentration measured after 6 hr; assay type: functional, organism-based
Tuta absoluta [8] = test: Walking avoidance activity against fourth-instar larval stage of Tuta absoluta Araguari infested compound-pretreated filter paper assessed as effect on walking time at LC90 concentration measured for 10 min; assay type: functional, organism-based
Tuta absoluta [9] = test: Insecticidal activity against Tuta absoluta Vicosa larvae in compound-pre-treated tomato leaves assessed as mortality after 144 hr; assay type: functional
Tuta absoluta [10] = test: Walking avoidance activity against second-instar larval stage of Tuta absoluta Vicosa in compound-pretreated tomato leaves assessed as decrease in walking time at LC50 to LC90 concentration measured after 6 hr; assay type: functional, organism-based
Tuta absoluta [11] = test: Walking avoidance activity against second-instar larval stage of Tuta absoluta Araguari in compound-pretreated tomato leaves assessed as decrease in walking time at LC50 to LC90 concentration measured after 6 hr; assay type: functional, organism-based
Tuta absoluta [12] = test: Insecticidal activity against Tuta absoluta Araguari larvae in compound-pre-treated tomato leaves assessed as mortality after 144 hr; assay type: functional
Tuta absoluta [13] = test: Egg-laying avoidance activity against non-sexed adult stage of Tuta absoluta Araguari in compound-pretreated tomato leaves assessed as decrease in number of eggs laid at equal to and greater than LC50 concentration measured for 2 days by free-choice test; assay type: functional, organism-based
Tuta absoluta [14] = test: Egg-laying avoidance activity against non-sexed adult stage of Tuta absoluta Vicosa in compound-pretreated tomato leaves assessed as decrease in number of eggs laid measured for 2 days by free-choice test; assay type: functional, organism-based
Tuta absoluta [15] = test: Walking avoidance activity against second-instar larval stage of Tuta absoluta Vicosa in compound-pretreated tomato leaves assessed as decrease in walking time at LC10 concentration measured after 6 hr; assay type: functional, organism-based
Tuta absoluta [16] = test: Resistance ratio of LC50 for Tuta absoluta Vicosa larvae to LC50 for Tuta absoluta Araguari larvae; assay type: functional
Tuta absoluta [17] = test: Insecticidal activity against second-instar larval stage of Tuta absoluta in tomato leaves assessed as survival rate at 1.7 mg ai/L incubated for 5 s prior to larval infestation after 9 days (reference value: >60%); assay type: functional; settings: 216 h
Tuta absoluta [18] = test: Insecticidal activity against second-instar larval stage of Tuta absoluta in tomato leaves assessed as survival rate at 27 mg ai/L incubated for 5 s prior to larval infestation after 9 days (reference value: >60%); assay type: functional; settings: 216 h
Tuta absoluta [19] = test: Effect on leaf mining activity of Tuta absoluta Vicosa second-instar larvae in compound-pretreated tomato leaves assessed as length of time required to mine the leaf at LC10 to LC90 concentration; assay type: functional
Tuta absoluta [20] = test: Insecticidal activity against second-instar larval stage of Tuta absoluta in tomato leaves assessed as delay in larval development at 27 mg ai/L incubated for 5 s prior to larval infestation after 9 days; assay type: functional, organism-based
Tuta absoluta [21] = test: Resistance ratio of LC90 for Tuta absoluta Vicosa larvae to LC90 for Tuta absoluta Araguari larvae; assay type: functional
Tuta absoluta [22] = test: Walking avoidance activity against fourth-instar larval stage of Tuta absoluta Vicosa infested compound-pretreated filter paper assessed as effect on walking time at LC90 concentration measured for 10 min; assay type: functional, organism-based

SMILES: C/C=C(\C)C(=O)O[C@H]1C[C@@H](OC(C)=O)[C@@]2(C(=O)OC)CO[C@H]3[C@@H](O)[C@@](C)([C@]45O[C@@]4(C)[C@@H]4C[C@H]5O[C@@H]5OC=C[C@@]54O)[C@H]4[C@]1(CO[C@]4(O)C(=O)OC)[C@@H]32 [AZADIRACHTIN A]
- Activity (Tuta absoluta [1]): inactive
- Activity (Tuta absoluta [2]): inactive
- inhibition (Tuta absoluta [3]): inactive
- Ratio (Tuta absoluta [4]): 1.65
- inhibition (Tuta absoluta [5]): inactive
- Time (Tuta absoluta [6]): 38.72 min
- inhibition (Tuta absoluta [7]): inactive
- Activity (Tuta absoluta [8]): inactive
- LC10 (Tuta absoluta [9]): 1.59 mgAi/L
- LC50 (Tuta absoluta [9]): 10.09 mgAi/L
- LC90 (Tuta absoluta [9]): 64.06 mgAi/L
- inhibition (Tuta absoluta [10]): Active
- inhibition (Tuta absoluta [11]): Active
- LC10 (Tuta absoluta [12]): 0.97 mgAi/L
- LC50 (Tuta absoluta [12]): 5.62 mgAi/L
- LC90 (Tuta absoluta [12]): 32.71 mgAi/L
- inhibition (Tuta absoluta [13]): Active
- inhibition (Tuta absoluta [14]): Dose-dependent effect
- inhibition (Tuta absoluta [15]): inactive
- Ratio (Tuta absoluta [16]): 1.8
- survival at 1.7 µg/mL (Tuta absoluta [17]): 25%
- survival at 27 µg/mL (Tuta absoluta [18]): < 4%
- Time (Tuta absoluta [19]): 33.56 min
- Activity (Tuta absoluta [20]): Active
- Ratio (Tuta absoluta [21]): 1.96
- Activity (Tuta absoluta [22]): inactive
